{
  "source": "patent US20210238169A1",
  "about": "“PROCESS FOR PREPARING A COMPOUND OF FORMULA (XIII)” (PULMOCIDE LIMITED, priority 2014, published 2021)",
  "key": {"[1]": {"system": "Aspergillus fumigatus (ATCC 13073)", "assay": "Extended prophylactic dosing: CFU in lung and GM in BALF and serum", "type": "in vivo, mice", "description": "Aspergillus fumigatus (ATCC 13073 [strain: NIH 5233], American Type Culture Collection, Manassas, Va., USA) was grown on Malt agar (Nissui Pharmaceutical, Tokyo, Japan) plates for 6-7 days at RT (24±1° C.). Spores were aseptically dislodged from the agar plates and suspended in sterile distilled water with 0.05% Tween 80 and 0.1% agar. On the day of infection, spore counts were assessed by haemocytometer and the inoculum was adjusted to obtain a concentration of 1.67×10^8 spores mL^−1 of physiological saline.\nOn day 0, animals were infected with the spore suspension (35 μL intra-nasally).\nTest compounds were administered intra-nasally (35 μL of a suspension of 0.08-2.00 mg/mL in physiological saline) once daily, 30 min before infection on day 0 and then on days 1, 2 and 3 (representing prophylactic treatment) or on days 1, 2 and 3 only (representing therapeutic treatment). For extended prophylactic treatment, test compounds (35 μL of a suspension of 0.0032 or 0.016 mg/mL in physiological saline) were administered intra-nasally once daily for seven days; then 30 min before infection on day 0, and thereafter, either on days 1, 2 and 3 after infection, or on day 0 only. The effects of these treatment paradigms were compared with those obtained when treatment was restricted to one day and 30 min before inoculation and then on days 1, 2 and 3 post infection; or reduced still further to one day and 30 min before infection only.\nSix hours after the last dose, animals were anesthetised, the trachea was cannulated and BALF was collected. The total number of alveolar cells was determined using a haemocytometer, and the numbers of alveolar macrophages and neutrophils were determined by FACS analysis (EPICS® ALTRA II, Beckman Coulter, Inc., Fullerton, Calif., USA) using anti-mouse MOMA2-FITC (macrophage) or anti-mouse 7/4 (neutrophil), respectively, as previously reported (Kimura et al., 2013). The levels of IFN-γ and IL-17 in BALF, and IL-6 and TNFα in serum were determined using Quantikine® mouse IFN-γ, IL-17, IL-6 or TNF-α ELISA kit (R&D systems, Inc., Minneapolis, Minn., USA) respectively. MDA, an oxidative stress marker, was assayed using OxiSelect® TBARS Assay Kits (MDA Quantitation; Cell Biolabs Inc, San Diego, Calif., USA). Aspergillus GM in serum was determination using Platelia GM-EIA kits (Bio-Rad Laboratories, Redmond, Wash., USA). Cut-off index was calculated by the formula: Cut-off index=OD in sample/OD in cut-off control provided in kit. For tissue fungal load assays, 100 mg of lung tissue was removed aseptically and homogenized in 0.2 mL of 0.1% agar in sterile distilled water. Serially diluted lung homogenates were plated on Malt agar plates (50 μL/plate), and incubated at 24±1° C. for 72 to 96 h. The colonies of A. fumigatus on each plate was counted and the fungal titre presented as CFU per gram of lung tissue."}, "BEAS2B cells": {"system": "BEAS2B cells", "assay": "Cell viability: resazurin assay", "type": "cell-based, human", "settings": "concentrations up to, at least, 10 μM", "description": "BEAS2B cells were seeded in 384-well plates (100 μL; 3000/well/; BD Falcon, Catalogue No 353962) in RPMI-LHC8 (RPMI-1640 and LHC8 media combined in equal proportions) one day before experimentation. For cell-free control wells, RPMI-LHC8 (100 μL) was added. Test compounds (0.5 μL of a DMSO solution) were added to give a final DMSO concentration of 0.5% using an Integra VIAFLO 96 (Integra, Zizers, Switzerland). BEAS2B cells were incubated with each test compound for 1 day (37° C./5% CO2 in RPMI-LHC8). After addition of resazurin stock solution (5 μL, 0.04%) the plates were incubated for a further 4 hr (37° C./5% CO2). The fluorescence of each well at 545 nm (excitation) and 590 nm (emission) was determined using a multi-scanner (Clariostar: BMG Labtech). The percentage loss of cell viability was calculated for each well relative to vehicle (0.5% DMSO) treatment. Where appropriate, a CC50 value was calculated from the concentration-response curve generated from the concentration-response curve for each test compound."}, "[2]": {"settings": "days dosed −1, 0, 16 μg/mL intra-nasally"}, "[3]": {"settings": "days dosed −1 to +3, 3.2 μg/mL intra-nasally"}, "[4]": {"settings": "days dosed −1 to +3, 16 μg/mL intra-nasally"}, "[5]": {"settings": "days dosed −7 to 0, 16 μg/mL intra-nasally"}, "[6]": {"settings": "days dosed −7 to +3, 3.2 μg/mL intra-nasally"}, "[7]": {"settings": "days dosed −7 to +3, 16 μg/mL intra-nasally"}},
  "data": [
    {"smiles": "Cc1cc(N2CCN(c3ccc(C(=O)Nc4ccc(F)cc4)cc3)CC2)ccc1OC[C@@H]1CO[C@@](Cn2cncn2)(c2ccc(F)cc2F)C1", "note": "[Compound (I), 4-(4-(4-(((3R,5R)-5-((1H-1,2,4-triazol-1-yl)methyl)-5-(2,4-difluorophenyl)tetrahydrofuran-3-yl)methoxy)-3-methylphenyl)piperazin-1-yl)-N-(4-fluorophenyl)benzamide]", "values": [
      {"measurement": "CFU in lung", "setting": "[1]; [2]", "result": "13.1 ± 2.6 /mg of lung"},
      {"measurement": "CFU in lung, % inhibition", "setting": "[1]; [2]", "result": 62, "unit": "%"},
      {"measurement": "GM in BALF", "setting": "[1]; [2]", "result": "4.5 ± 0.50", "unit": "COI"},
      {"measurement": "GM in BALF, % inhibition", "setting": "[1]; [2]", "result": 12, "unit": "%"},
      {"measurement": "GM in serum", "setting": "[1]; [2]", "result": "4.0 ± 0.88", "unit": "COI"},
      {"measurement": "GM in serum, % inhibition", "setting": "[1]; [2]", "result": 7, "unit": "%"},
      {"measurement": "CFU in lung", "setting": "[1]; [3]", "result": "9.5 ± 3.3 /mg of lung"},
      {"measurement": "CFU in lung, % inhibition", "setting": "[1]; [3]", "result": 73, "unit": "%"},
      {"measurement": "GM in BALF", "setting": "[1]; [3]", "result": "2.8 ± 0.71", "unit": "COI"},
      {"measurement": "GM in BALF, % inhibition", "setting": "[1]; [3]", "result": 45, "unit": "%"},
      {"measurement": "GM in serum", "setting": "[1]; [3]", "result": "2.2 ± 0.69", "unit": "COI"},
      {"measurement": "GM in serum, % inhibition", "setting": "[1]; [3]", "result": 49, "unit": "%"},
      {"measurement": "CFU in lung", "setting": "[1]; [4]", "result": "6.1 ± 2.8 /mg of lung"},
      {"measurement": "CFU in lung, % inhibition", "setting": "[1]; [4]", "result": 82, "unit": "%"},
      {"measurement": "GM in BALF", "setting": "[1]; [4]", "result": "2.2 ± 0.61", "unit": "COI"},
      {"measurement": "GM in BALF, % inhibition", "setting": "[1]; [4]", "result": 57, "unit": "%"},
      {"measurement": "GM in serum", "setting": "[1]; [4]", "result": "1.6 ± 0.41", "unit": "COI"},
      {"measurement": "GM in serum, % inhibition", "setting": "[1]; [4]", "result": 63, "unit": "%"},
      {"measurement": "CFU in lung", "setting": "[1]; [5]", "result": "6.7 ± 1.7 /mg of lung"},
      {"measurement": "CFU in lung, % inhibition", "setting": "[1]; [5]", "result": 81, "unit": "%"},
      {"measurement": "GM in BALF", "setting": "[1]; [5]", "result": "2.3 ± 0.52", "unit": "COI"},
      {"measurement": "GM in BALF, % inhibition", "setting": "[1]; [5]", "result": 55, "unit": "%"},
      {"measurement": "GM in serum", "setting": "[1]; [5]", "result": "1.7 ± 0.59", "unit": "COI"},
      {"measurement": "GM in serum, % inhibition", "setting": "[1]; [5]", "result": 60, "unit": "%"},
      {"measurement": "CFU in lung", "setting": "[1]; [6]", "result": "8.3 ± 2.0 /mg of lung"},
      {"measurement": "CFU in lung, % inhibition", "setting": "[1]; [6]", "result": 76, "unit": "%"},
      {"measurement": "GM in BALF", "setting": "[1]; [6]", "result": "2.6 ± 0.36", "unit": "COI"},
      {"measurement": "GM in BALF, % inhibition", "setting": "[1]; [6]", "result": 49, "unit": "%"},
      {"measurement": "GM in serum", "setting": "[1]; [6]", "result": "1.8 ± 0.43", "unit": "COI"},
      {"measurement": "GM in serum, % inhibition", "setting": "[1]; [6]", "result": 58, "unit": "%"},
      {"measurement": "CFU in lung", "setting": "[1]; [7]", "result": "5.0 ± 2.3 /mg of lung"},
      {"measurement": "CFU in lung, % inhibition", "setting": "[1]; [7]", "result": 86, "unit": "%"},
      {"measurement": "GM in BALF", "setting": "[1]; [7]", "result": "1.7 ± 0.39", "unit": "COI"},
      {"measurement": "GM in BALF, % inhibition", "setting": "[1]; [7]", "result": 67, "unit": "%"},
      {"measurement": "GM in serum", "setting": "[1]; [7]", "result": "1.4 ± 0.20", "unit": "COI"},
      {"measurement": "GM in serum, % inhibition", "setting": "[1]; [7]", "result": 67, "unit": "%"},
      {"measurement": "effect on the viability of BEAS2B bronchial epithelial cells", "setting": "BEAS2B cells", "result": "no or little effect"}
    ]}
  ]
}
